Laboratory results: patent publication US8273754B2, “Substituted 1H-pyrazolo[3,4-D]pyrimidine-6-amine compounds” (ArQule, Inc., priority 2008, dated 2012)
Read-outs that look alike come from different tables or passages of the source.

Tested on: cancer cells
Assay: MTS cell growth inhibition assay (72 hours)
Format: cell-based
Outline: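 Cells in DMEM with 1% FBS, seeded 18 h, then compound-treated 72 h at 37 °C. Viability by MTS/PMS for 4 h, formazan absorbance at 492 nm; IC50 taken as concentration giving 50% absorbance drop, activity banded by percent inhibition.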

[1] = Homo sapiens, DLD-1, 72 h, DLD-1 cells, read-out: DLD-1 MTS 72 hr at 10 μM
[2] = Homo sapiens, KATO III, 72 h, KATO III cells, read-out: KATO III MTS 72 hr at 10 μM
[3] = Homo sapiens, MDA-MB-231, 72 h, MDA-MB-231 cells, read-out: MDA-MB-231 MTS 72 hr at 10 μM
[4] = Homo sapiens, NCI-H1299, 72 h, NCI-H1299 cells, read-out: NCI-H1299 MTS 72 hr at 10 μM
[5] = PaCa-2, 72 h, PACA-2 cells, read-out: PACA-2 MTS 72 hr at 10 μM

In the case of `Nc1nc(NC2CCN(S(=O)(=O)c3cc(Cl)cc(Cl)c3)c3ccccc3C2)c2cn[nH]c2n1` (stereo not shown) [Compound 174, N4-{1-[(3,5-dichlorophenyl)sulfonyl]-2,3,4,5-tetrahydro-1H-1-benzazepin-4-yl}-1H-pyrazolo[3,4-d]pyrimidine-4,6-diamine], the inhibition at 10 µM [1] is reported as 50 to 79%, the inhibition at 10 µM [2] is reported as 50 to 79% and the inhibition at 10 µM [3] is reported as under 50%. It also gave an inhibition at 10 µM [4] of under 50% and an inhibition at 10 µM [5] of 50 to 79%.
In the case of `COc1cccc(S(=O)(=O)N2CCC(Nc3nc(N)nc4[nH]ncc34)Cc3ccccc32)c1` (stereo not shown) [Compound 175, N4-{1-[(3-methoxyphenyl)sulfonyl]-2,3,4,5-tetrahydro-1H-1-benzazepin-4-yl}-1H-pyrazolo[3,4-d]pyrimidine-4,6-diamine], the inhibition at 10 µM [1] is reported as under 50%, the inhibition at 10 µM [2] is reported as under 50% and the inhibition at 10 µM [3] is reported as under 50%. It also gave an inhibition at 10 µM [4] of under 50% and an inhibition at 10 µM [5] of under 50%.
`COc1ccc(OC)c(S(=O)(=O)N2CCC(Nc3nc(N)nc4[nH]ncc34)Cc3ccccc32)c1` (stereo not shown) [Compound 176, N4-{1-[(2,5-dimethoxyphenyl)sulfonyl]-2,3,4,5-tetrahydro-1H-1-benzazepin-4-yl}-1H-pyrazolo[3,4-d]pyrimidine-4,6-diamine] showed an inhibition at 10 µM [1] of under 50%, an inhibition at 10 µM [2] of under 50% and an inhibition at 10 µM [3] of under 50%. The inhibition at 10 µM [4] was under 50% and the inhibition at 10 µM [5] was under 50%.
Work on `Cc1ccc(S(=O)(=O)N2CCC(Nc3nc(N)nc4[nH]ncc34)Cc3ccccc32)cc1` (stereo not shown) [Compound 177, N4-{1-[(4-methylphenyl)sulfonyl]-2,3,4,5-tetrahydro-1H-1-benzazepin-4-yl}-1H-pyrazolo[3,4-d]pyrimidine-4,6-diamine] yielded an inhibition at 10 µM [1] of under 50%, an inhibition at 10 µM [2] of under 50% and an inhibition at 10 µM [3] of under 50%. The inhibition at 10 µM [4] was under 50% and the inhibition at 10 µM [5] was under 50%.
`Nc1nc(NC2CCN(S(=O)(=O)c3ccc(Cl)c(Cl)c3)c3ccccc3C2)c2cn[nH]c2n1` (stereo not shown) [Compound 179, N4-{1-[(3,4-dichlorophenyl)sulfonyl]-2,3,4,5-tetrahydro-1H-1-benzazepin-4-yl}-1H-pyrazolo[3,4-d]pyrimidine-4,6-diamine] showed an inhibition at 10 µM [1] of 50 to 79%, an inhibition at 10 µM [2] of 50 to 79% and an inhibition at 10 µM [3] of under 50%. The inhibition at 10 µM [4] was under 50% and the inhibition at 10 µM [5] was under 50%.
`N#Cc1cccc(S(=O)(=O)N2CCC(Nc3nc(N)nc4[nH]ncc34)Cc3ccccc32)c1` (stereo not shown) [Compound 180, 3-({4-[(6-amino-1H-pyrazolo[3,4-d]pyrimidin-4-yl)amino]-2,3,4,5-tetrahydro-1H-1-benzazepin-1-yl}sulfonyl)benzonitrile] was tested, and the inhibition at 10 µM [1] was under 50%, the inhibition at 10 µM [2] was under 50% and the inhibition at 10 µM [3] was under 50%. The inhibition at 10 µM [4] was under 50% and the inhibition at 10 µM [5] was under 50%.
With `Nc1nc(NC2CCN(S(=O)(=O)c3ccc(F)c(Cl)c3)c3ccccc3C2)c2cn[nH]c2n1` (stereo not shown) [Compound 181, N4-{1-[(3-chloro-4-fluorophenyl)sulfonyl]-2,3,4,5-tetrahydro-1H-1-benzazepin-4-yl}-1H-pyrazolo[3,4-d]pyrimidine-4,6-diamine] the inhibition at 10 µM [1] was under 50%, the inhibition at 10 µM [2] was under 50% and the inhibition at 10 µM [3] was under 50%. For the same molecule, the inhibition at 10 µM [4] was under 50% and the inhibition at 10 µM [5] was 50 to 79%.
`Nc1nc(NC2CCN(S(=O)(=O)c3ccc(F)c(F)c3)c3ccccc3C2)c2cn[nH]c2n1` (stereo not shown) [Compound 182, N4-{1-[(3,4-difluorophenyl)sulfonyl]-2,3,4,5-tetrahydro-1H-1-benzazepin-4-yl}-1H-pyrazolo[3,4-d]pyrimidine-4,6-diamine] gave an inhibition at 10 µM [1] of under 50%, an inhibition at 10 µM [2] of under 50% and an inhibition at 10 µM [3] of under 50%. It also gave an inhibition at 10 µM [4] of under 50% and an inhibition at 10 µM [5] of under 50%.
With `Nc1nc(NC2CCN(S(=O)(=O)c3ccc(F)cc3)c3ccccc3C2)c2cn[nH]c2n1` (stereo not shown) [Compound 183, N4-{1-[(4-fluorophenyl)sulfonyl]-2,3,4,5-tetrahydro-1H-1-benzazepin-4-yl}-1H-pyrazolo[3,4-d]pyrimidine-4,6-diamine] the inhibition at 10 µM [1] was under 50%, the inhibition at 10 µM [2] was under 50% and the inhibition at 10 µM [3] was under 50%. The inhibition at 10 µM [4] was under 50% and the inhibition at 10 µM [5] was under 50%.
With `Cc1ccc(C)c(S(=O)(=O)N2CCC(Nc3nc(N)nc4[nH]ncc34)Cc3ccccc32)c1` (stereo not shown) [Compound 184, N4-{1-[(2,5-dimethylphenyl)sulfonyl]-2,3,4,5-tetrahydro-1H-1-benzazepin-4-yl}-1H-pyrazolo[3,4-d]pyrimidine-4,6-diamine] the inhibition at 10 µM [1] was under 50%, the inhibition at 10 µM [2] was under 50% and the inhibition at 10 µM [3] was under 50%. For the same molecule, the inhibition at 10 µM [4] was under 50% and the inhibition at 10 µM [5] was under 50%.
Work on `Nc1nc(NC2CCN(S(=O)(=O)c3ccc(OC(F)(F)F)cc3)c3ccccc3C2)c2cn[nH]c2n1` (stereo not shown) [Compound 185, N4-(1-{[4-(trifluoromethoxy)phenyl]sulfonyl}-2,3,4,5-tetrahydro-1H-1-benzazepin-4-yl)-1H-pyrazolo[3,4-d]pyrimidine-4,6-diamine] yielded an inhibition at 10 µM [1] of under 50%, an inhibition at 10 µM [2] of under 50% and an inhibition at 10 µM [3] of under 50%. It also gave an inhibition at 10 µM [4] of under 50% and an inhibition at 10 µM [5] of under 50%.
Molecule `Nc1nc(NC2CCN(S(=O)(=O)c3ccc(C(F)(F)F)cc3)c3ccccc3C2)c2cn[nH]c2n1` (stereo not shown) [Compound 186, N4-(1-{[4-(trifluoromethyl)phenyl]sulfonyl}-2,3,4,5-tetrahydro-1H-1-benzazepin-4-yl)-1H-pyrazolo[3,4-d]pyrimidine-4,6-diamine] has an inhibition at 10 µM [1] of under 50%, an inhibition at 10 µM [2] of under 50% and an inhibition at 10 µM [3] of under 50%. For the same molecule, the inhibition at 10 µM [4] was under 50% and the inhibition at 10 µM [5] was under 50%.
`Nc1nc(NC2CCN(S(=O)(=O)c3cccc4c(Cl)cccc34)c3ccccc3C2)c2cn[nH]c2n1` (stereo not shown) [Compound 187, N4-{1-[(5-chloro-1-naphthyl)sulfonyl]-2,3,4,5-tetrahydro-1H-1-benzazepin-4-yl}-1H-pyrazolo[3,4-d]pyrimidine-4,6-diamine] gave an inhibition at 10 µM [1] of 50 to 79%, an inhibition at 10 µM [2] of 50 to 79% and an inhibition at 10 µM [3] of under 50%. The inhibition at 10 µM [4] was under 50% and the inhibition at 10 µM [5] was 50 to 79%.
`Nc1nc(NC2Cc3ccccc3N(S(=O)(=O)c3ccc(NC(=O)Nc4ccc(C(F)(F)F)cc4)cc3)C2)c2cn[nH]c2n1` (stereo not shown) [Compound 188, 1-[4-({3-[(6-amino-1H-pyrazolo[3,4-d]pyrimidin-4-yl)amino]-3,4-dihydroquinolin-1(2H)-yl}sulfonyl)phenyl]-3-[4-(trifluoromethyl)phenyl]urea] was tested, and the inhibition at 10 µM [1] was over 79%, the inhibition at 10 µM [2] was over 79% and the inhibition at 10 µM [3] was over 79%. It also gave an inhibition at 10 µM [4] of over 79% and an inhibition at 10 µM [5] of over 79%.
In the case of `Nc1nc(NC2Cc3ccccc3N(S(=O)(=O)c3ccc(NC(=O)Nc4ccc5ccccc5c4)cc3)C2)c2cn[nH]c2n1` (stereo not shown) [Compound 189, 1-[4-({3-[(6-amino-1H-pyrazolo[3,4-d]pyrimidin-4-yl)amino]-3,4-dihydroquinolin-1(2H)-yl}sulfonyl)phenyl]-3-(2-naphthyl)urea], the inhibition at 10 µM [1] is reported as over 79%, the inhibition at 10 µM [2] is reported as over 79% and the inhibition at 10 µM [3] is reported as over 79%. It also gave an inhibition at 10 µM [4] of over 79% and an inhibition at 10 µM [5] of over 79%.
Molecule `Nc1nc(NC2Cc3ccccc3N(S(=O)(=O)c3ccc(NC(=O)Nc4ccccc4Cl)cc3)C2)c2cn[nH]c2n1` (stereo not shown) [Compound 190, 1-[4-({3-[(6-amino-1H-pyrazolo[3,4-d]pyrimidin-4-yl)amino]-3,4-dihydroquinolin-1(2H)-yl}sulfonyl)phenyl]-3-(2-chlorophenyl)urea] has an inhibition at 10 µM [1] of under 50%, an inhibition at 10 µM [2] of under 50% and an inhibition at 10 µM [3] of under 50%. The inhibition at 10 µM [4] was under 50% and the inhibition at 10 µM [5] was under 50%.
For `Nc1nc(NC2Cc3ccccc3N(S(=O)(=O)c3ccc(NC(=O)Nc4ccccc4F)cc3)C2)c2cn[nH]c2n1` (stereo not shown) [Compound 191, 1-[4-({3-[(6-amino-1H-pyrazolo[3,4-d]pyrimidin-4-yl)amino]-3,4-dihydroquinolin-1(2H)-yl}sulfonyl)phenyl]-3-(2-fluorophenyl)urea], the inhibition at 10 µM [1] was under 50%, the inhibition at 10 µM [2] was under 50% and the inhibition at 10 µM [3] was under 50%. It also gave an inhibition at 10 µM [4] of under 50% and an inhibition at 10 µM [5] of under 50%.
Work on `Nc1nc(NC2Cc3ccccc3N(S(=O)(=O)c3ccc(NC(=O)NC4CCCc5ccccc54)cc3)C2)c2cn[nH]c2n1` (stereo not shown) [Compound 192, 1-[4-({3-[(6-amino-1H-pyrazolo[3,4-d]pyrimidin-4-yl)amino]-3,4-dihydroquinolin-1(2H)-yl}sulfonyl)phenyl]-3-(1,2,3,4-tetrahydronaphthalen-1-yl)urea] yielded an inhibition at 10 µM [1] of over 79%, an inhibition at 10 µM [2] of over 79% and an inhibition at 10 µM [3] of over 79%. It also gave an inhibition at 10 µM [4] of over 79% and an inhibition at 10 µM [5] of over 79%.
`Nc1nc(NC2Cc3ccccc3N(S(=O)(=O)c3ccc(NC(=O)Nc4ccc5c(c4)CCC5)cc3)C2)c2cn[nH]c2n1` (stereo not shown) [Compound 193, 1-[4-({3-[(6-amino-1H-pyrazolo[3,4-d]pyrimidin-4-yl)amino]-3,4-dihydroquinolin-1(2H)-yl}sulfonyl)phenyl]-3-(2,3-dihydro-1H-inden-5-yl)urea] gave an inhibition at 10 µM [1] of 50 to 79%, an inhibition at 10 µM [2] of over 79% and an inhibition at 10 µM [3] of 50 to 79%. It also gave an inhibition at 10 µM [4] of over 79% and an inhibition at 10 µM [5] of over 79%.
`Nc1nc(NC2Cc3ccccc3N(S(=O)(=O)c3ccc(NC(=O)Nc4ccc(F)c(F)c4)cc3)C2)c2cn[nH]c2n1` (stereo not shown) [Compound 194, 1-[4-({3-[(6-amino-1H-pyrazolo[3,4-d]pyrimidin-4-yl)amino]-3,4-dihydroquinolin-1(2H)-yl}sulfonyl)phenyl]-3-(3,4-difluorophenyl)urea] gave an inhibition at 10 µM [1] of over 79%, an inhibition at 10 µM [2] of over 79% and an inhibition at 10 µM [3] of over 79%. For the same molecule, the inhibition at 10 µM [4] was over 79% and the inhibition at 10 µM [5] was over 79%.
